Measured values: ChEMBL document CHEMBL1147657, “Indanesulfonamides as carbonic anhydrase inhibitors. Toward structure-based design of selective inhibitors of the tumor-associated isozyme CA IX” (J Med Chem, 2006)

Target: Carbonic anhydrase 9 (Homo sapiens, UniProt Q16790)

Question: With CCCCCCCCCC(=O)NC1Cc2ccc(S(N)(=O)=O)cc2C1 (configuration not stated) as the compound, how does the Ki read?
Answer: The Ki was 3.7 nM.

Question: For NS(=O)(=O)c1ccc2c(c1)CC(NC(=O)c1c(F)c(F)c(F)c(F)c1F)C2 (configuration not stated), which Ki is on record?
Answer: Its Ki is 33 nM.
